The values that follow come from patent US20250177303A1, “A DRUG NANOCARRIER SYSTEM TO DELIVER A COMBINATION OF TLR AGONISTS AND/OR A LIPOXIN PLUS IMMUNOGENIC CELL DEATH INDUCING CHEMOTHERAPEUTIC AGENTS FOR CANCER IMMUNOTHERAPY” (The Regents of the University of California, priority 2022, published 2025).

One series relates to KPC cells. Nature of the series: In vitro killing of KPC cells, CCK-8 assay. It counts as cell-based, murine. As to conditions: 50-500 μM IRIN, 48 h. The protocol: 20 μL of CCK-8 solution was added to each well and the plates were incubated for an additional 1-2 h in an incubator. The absorbance of each well was assessed at 450 nm in a microplate reader. Cytotoxicity (% dead cells) was calculated using the formula: (ODsample−ODblank)/(ODcontrol−ODblank)×100.

Series [1] is described as follows: Subcutaneous KPC tumor model, body weight and blood parameters (safety). As to conditions: blood on day 21, 4 IV injections, 3M-052 2 mg/kg, IRIN 40 mg/kg. It counts as in vivo, B6129SF1/J mice. The protocol:
Table 10. A subcutaneous KPC tumor model was established in B6129SF1/J mice. […] Blood was collected from the sacrificed animals on day 21. The biochemical parameters were assayed by UCLA Division of Laboratory Animal Medicine (DLAM) diagnostic laboratory services. These parameters include white blood cell (WBC), alkaline phosphatase (ALP), aspartate aminotransferase (AST), alanine aminotransferase (ALT), blood urea nitrogen (BUN), creatinine, calcium, and phosphorus.
A subcutaneous KPC tumor model was established in immunocompetent B6129SF1/J mice, using protocols approved by the UCLA Animal Research Committee. Briefly, 100 μL of a DMEM/Matrigel (1:1 v/v) suspension, containing 1×10^6 KPC cells, was subcutaneously injected into the right flank of female B6129SF1/J mice, 8-10 weeks old. […] Injections were given every 3-4 days, using the dosing schedule that delivers the equivalent of 2 mg/kg and 40 mg/kg, respectively, for 3M-052 and IRIN. Subcutaneous KPC tumor size and animal weight were monitored every 2 days. The tumor size was calculated according to the formula: (Width^2×Length)/2.
We also collected blood for separating serum after centrifugation at 3500 rpm for 20 min. The following biochemical parameters were assayed by UCLA Division of Laboratory Animal Medicine (DLAM) diagnostic laboratory services: white blood cell (WBC), alkaline phosphatase (ALP), aspartate aminotransferase (AST), alanine aminotransferase (ALT), blood urea nitrogen (BUN), creatinine, calcium, and phosphorus.

The test system of a further series is orthotopic KPC-luc tumor. The series can be described thus: Orthotopic KPC-luc tumor model, efficacy (IVIS bioluminescence, tumor weight, metastasis). It counts as in vivo, B6129SF1/J mice.
Series [2] has as its system subcutaneous KPC tumor. The series can be described thus: IHC of T lymphocytes and perforin in KPC tumors (lipo-LXA4-IRIN study). It counts as in vivo, B6129SF1/J mice. As to conditions: normalized over no treatment control.
The subject of series [3] is subcutaneous KPC tumor. The series can be described thus: Subcutaneous KPC tumor model, tumor growth (3M-052/IRIN carriers). Conditions: for Inhibition of tumor growth compared to saline: day 20, p<0.001.
Method: The schematic in FIG. 6, panel A depicts the treatment outline for conducting the subcutaneous KPC tumor experiment. […] Tumor-bearing mice were randomly divided into 5 groups (n=6 or 7), which received IV administration of the different treatment modalities, every 3-4 days on 4 occasions. […] IRIN was administered at 40 mg/kg while the 3M-052 dose was delivered at 2 mg/kg. FIG. 6, panel B, depicts the average subcutaneous KPC tumor growth kinetics, as determined by tumor volume. Tumor size was measured every 2 days, and tumor volume was calculated by the formula: tumor volume (mm^3)=(length in mm)×(width in mm)^2/2.
KPC cells were subcutaneously injected into the right flank of female B6129SF1/J mice for in vivo experimentation. […] Subcutaneous tumor sizes were monitored every 2 days.
For the next series, the system named is TGF-β activated hPSCs. The series can be described thus: IL-6 secretion from TGF-β activated human pancreatic stellate cells (ELISA). It counts as cell-based. As to conditions: 1-100 nM LXA4, 48 h, TGF-β 20 ng/mL. The procedure: HPaSteCs were seeded at 2500 cells/well in a 96-well plate and activated with TGF-p (20 ng/mL) overnight. The next day, hPSCs were treated with 1-100 nM of LXA4 in free and liposomal form. After 48 h of incubation, the supernatant was collected and analysed for IL-6 secretion with ELISA. […] A possible explanation is provided by the schematic in FIG. 11, panel A.
(ELISA stands for enzyme-linked immunosorbent assay.)

A further series relates to RAW264.7 macrophages. Nature of the series: RAW264.7 macrophage activation (CD80 flow cytometry, IL-12p40 and TNF-α ELISA). It counts as cell-based, murine. Conditions: RAW264.7, 10 μM, 21 h. The protocol:
(§1) Having confirmed effective intracellular delivery of TLR7 activation, the next task was to determine the effect of the 3M-silicasome in the ex vivo activation of macrophages and DCs. These assays were performed in RAW264.7 macrophages and murine bone marrow-derived dendritic cells (BMDCs). RAW264.7 and BMDCs were treated with 10 μM each of R848 (positive control), free 3M-052, or the 3M-silicasome for 21 hours before assessing CD80 expression (FIG. 16, panels C and E). […] We also quantified the release of two key pro-inflammatory cytokines, IL-12p40 and TNF-α by ELISA in the same cell types, using similar stimuli.
RAW264.7 cells (1×10^5 cells/well) were cultured in 48-well plates for 24 h, before the addition of PBS or 10 μM concentrations of R848, free 3M-052 or the 3M-silicasome for a further 21 h. Immature BMDCs (5×10^5 cells/well) were cultured in 24-well plates, receiving the same dose of R848, free 3M-052, and 3M-silicasome for 21 h. […]
(§2) For flow cytometry analysis of surface markers, cells were washed with cell staining buffer, before staining RAW264.7 cells with anti-CD80 or BMDCs with FITC-conjugated anti-CD11c and anti-CD80 on ice, according to the manufacturer's instructions. The assessment of the differentiation and activation markers were evaluated by flow cytometry (LSRFortessa; BD Biosciences), analyzed by FlowJo software.

In series [4] the test system is murine bone marrow-derived dendritic cells (BMDCs). Nature of the series: BMDC activation (flow cytometry, IL-12p40 and TNF-α ELISA). It counts as cell-based. Conditions: 10 μM, 21 h. The procedure:
as §1
Bone marrow-derived dendritic cells (BMDCs) were prepared according to our established procedure, with a slight modification.^[42] Bone marrow cells flushed from the femur and tibia of B6/129 mice were collected and red blood cells were lysed by incubating in ACK Lysing Buffer. […]
as §2
(In flow cytometry, cells or beads pass a laser one at a time.)

The subject of series [5] is LN-resident dendritic cells (LN-DCs). Nature of the series: Subcutaneous KPC tumor model, flow cytometry of inguinal lymph node dendritic cells. As to conditions: inguinal lymph nodes. It counts as in vivo, B6129SF1/J mice. From the text: Subcutaneous tumor implantation in the rear animal flank allows lymphatic drainage to the regional inguinal lymph nodes (LNs), which were harvested to assess therapeutic impact on LN-resident dendritic cells (LN-DCs). This reasoning is premised on the possibility that LN participation in the cancer immunity cycle may be able to strengthen the ICD response by increasing recruitment of newly-activated cytotoxic T-cells back to the principal tumor site. Following inguinal LN harvesting and cellular release, initial flow cytometry gating selected singlet live cells (FIG. 26). Further gating on the CD11c^+/CD45^+ DC subset was used to quantify CD80 and CD86 expression, representative of the surface receptors on an activated DC subset, participating in T-cell activation. […] We also obtained evidence that the response boosting involves LNDC participation as a key component of the cancer immunity cycle.
Following animal sacrifice, photographs were obtained of the harvested tumors, which were subsequently fixed in 10% formalin for IHC staining by the UCLA Translational Pathology Core Laboratory. Image processing was performed using Aperio ImageScope software (Leica). IHC analysis was performed to assess tumor staining intensity for CD8 and FoxP3. Additionally, we assessed the immune response in the draining inguinal lymph nodes (LNs) harvested from the sacrificed animals. […]

Series [6] is described as follows: Pharmacokinetics of 3M-052 and IRIN in plasma (HPLC). It counts as in vivo, healthy B6129SF1/J mice. Conditions: single IV, 3M-052 2 mg/kg, IRIN 40 mg/kg.
Method: Free 3M-052 and IRIN were extracted by methanol and measured by HPLC.
The harvested tumor and organ samples, collected in the drug biodistribution experiment, were weighed and homogenized. The collected plasma, tumor, and organ homogenates were extracted in methanol, using 1:5, 1:4, and 1:3 v/v dilutions, respectively. The extracts were vortexed for 20 s and centrifuged at 13000 rpm for 10 min, following which the drug-containing supernatants were filtrated through 0.22 μm filters to perform HPLC analysis. The HPLC system is operated by a Knauer Smartline Pneumatic Pump, C18 column, K-2600 spectrophotometer, and Gina data acquisition software. The mobile phase consisted of mobile phase A (0.01% trifluoroacetic acid in water) and mobile phase B (0.01% trifluoroacetic acid in methanol) as 70% A and 30% B (v/v). A 20 μL of the sample was injected to measure the 3M-052 and IRIN absorptions at 320 and 360 nm. The 3M-052 and IRIN standard curves were generated over the maximal concentrations of 40 and 100 μg/mL respectively.
For series [7] the following is noted: cited from earlier work.

Structures are written as SMILES. “Also recorded” adds a separate entry of the source.

Method for orthotopic KPC-luc tumor: FIG. 8, panel A, depicts the experimental outline of the study conducted by orthotopic implantation KPC-luc tumor cells in the pancreatic tail of syngeneic mice. In brief, 50 μL of PBS/Matrigel (6:4 v/v), containing 0.8×10^6 KPC-luc cells was orthotopically injected into the tail of the pancreas of female B6129SF1/J mice 8 days before the onset of treatment. […] FIG. 8, panel C depicts the average quantitative tumor bioluminescence in each group at day 21, as calculated by IVIS software. **p<0.01.
Mice were sacrificed on day 21. FIG. 8, panel D, depicts the IVIS imaging performed on the ex vivo explanted tumor tissues and potential metastatic organs on day 21. […] FIG. 8, panel G depicts animal body weights over a time period of 21 days.
50 μL of a DMEM/Matrigel (6:4 v/v) suspension, containing 8×10^5 KPC-luc cells, was injected into the tail of the pancreas in female B6129SF1/J mice by a survival surgery procedure. […] The dose equivalents of 3M-052 and IRIN were 2 mg/kg and 40 mg/kg per dose, respectively. Animal weight was monitored every 2 days.
To perform the bioluminescence imaging of the luciferase-expressing tumors, mice were injected intraperitoneal with 50 mg/kg D-Luciferin on day 7, 15, 18, and 21. Ex vivo IVIS images of tumors and major organs, collected from sacrificed animals, were obtained on day 21. In addition, we also obtained photographs and weighed the harvested tumors, which were subsequently fixed in 10% formalin for the performance of IHC staining.

As to `CCc1c2c(nc3ccc(OC(=O)N4CCC(N5CCCCC5)CC4)cc13)-c1cc3c(c(=O)n1C2)COC(=O)[C@]3(O)CC` [free IRIN, Irinotecan], the “Cytotoxicity to KPC cells” value in the series on KPC cells is “dose-dependent cytotoxicity, with a steeper decline in viability”. Further, in series [1], the ALP was 91.0 ± 1.7 U/L, the AST was 66.3 ± 22.2 U/L, the BUN came to 17.0 ± 1.0 mg/dL and the Calcium is given as 8.9 ± 0.1 mg/dL. Further, in series [1], the Creatinine is on record as 0.0 ± 0.1 mg/dL, the Phosphorous was 7.4 ± 0.5 mg/dL and the WBC was 3.9 ± 0.5 10^3/μL. In addition, the Tumor bioluminescence intensity entry in the series with orthotopic KPC-luc tumor (day 21, IV every 3 days x4, compared to saline or free IRIN) is “little effect on orthotopic tumors”. Further, the “Metastatic spread to surrounding organs” value in the series with orthotopic KPC-luc tumor (ex vivo IVIS imaging, day 21) is on record as “same metastatic burden; also recorded: evidence for splenic involvement”. Also, the Perforin signal result with subcutaneous KPC tumor [2] is “increase in the perforin levels compared to the no-treatment control”. Further, in the series with subcutaneous KPC tumor [3], the “Inhibition of tumor growth compared to saline” value is “statistically significant compared to the saline control”.

On to `CCCCC[C@H](O)/C=C/C=C\C=C\C=C\[C@@H](O)[C@@H](O)CCCC(=O)O` [LXA4, lipoxin A4], for which the IL-6 release result in the series with TGF-β activated hPSCs is on record as “significantly inhibited IL-6 release in a concentration-dependent manner”.

`CCCCCCCCCCCCCCCCCC(=O)NCCCCOn1c(CCCC)nc2c(N)nc3ccccc3c21` [free 3M-052, Telratolimod]: the “CD80 cell surface expression” value in the series with RAW264.7 macrophages is on record as “significant increase in cell surface expression of a maturation marker”. For the same molecule, the “IL-12p40 and TNF-α release” value with RAW264.7 macrophages (ELISA) is given as “higher responses”. Moreover, the “CD80 cell surface expression” value in series [4] is reported as “significant increase in cell surface expression of a maturation marker”. Moreover, the “IL-12p40 and TNF-α release” value in [4] (ELISA) is listed as “higher responses”. Besides, the “CD80 and CD86 expression in CD11c+/CD45+ population” value in series [5] (4 rounds of treatment) is given as “up-regulated”. Moreover, the “Percentage of CD45+/CD11c+ LN-DCs” value in series [5] (day 21, compared to saline and free IRIN) is “increase in the percentage of CD45^+/CD11c^+ LN-DCs”. In addition, in series [1], the ALP is 64.3 ± 7.6 U/L, the ALT was determined as 32.3 ± 11.9 U/L, the AST is 95.0 ± 14.0 U/L and the BUN is 16.0 ± 2.0 mg/dL. In addition, in series [1], the Calcium came out at 8.7 ± 0.2 mg/dL, the Creatinine amounted to 0.0 ± 0.0 mg/dL, the Phosphorous came to 7.2 ± 1.3 mg/dL and the WBC is listed as 3.5 ± 0.1 10^3/μL. The “Clearance from the blood circulation” value in [6] is “rapidly cleared”. Further, in the series with subcutaneous KPC tumor [3] (IV every 3-4 days x4, 3M-052 2 mg/kg, IRIN 40 mg/kg), the “Effect on tumor volume growth” value is recorded as “modest effects”. In the series with subcutaneous KPC tumor [3], the “Inhibition of tumor growth compared to saline” value is listed as “statistically significant compared to the saline control”. Besides, the “Inhibition of tumor growth compared between treatments” value in the series with subcutaneous KPC tumor [3] (tumor volume, comparison among treatment groups) is listed as “significantly reduced compared to treatment with single-drug or dual-drug silicasomes”.

Consider `CC(=O)O[C@@]12CO[C@@H]1C[C@H](O)[C@@]1(C)C(=O)[C@H](O)C3=C(C)[C@@H](OC(=O)[C@H](O)[C@@H](NC(=O)OC(C)(C)C)c4ccccc4)C[C@@](O)([C@@H](OC(=O)c4ccccc4)[C@H]21)C3(C)C` [docetaxel], for which, in series [7], the Ethanol solubility is around 100 mg/mL.

For `O=C1c2c(O)ccc(O)c2C(=O)c2c(NCCNCCO)ccc(NCCNCCO)c21` [mitoxantrone], the Water solubility in series [7] (drugbank) is 89 mg/mL.
